Patent US7592351B2, “Substituted imidazo[1,2-a]pyridine compounds and pharmaceutical preparations containing substituted imidazo[1,2-a]pyridine compounds” (Gruenenthal GmbH, priority 2004, dated 2009)
Structures can show the parent of a compound that is named as a salt.

Molecular target: T1, vanilloid receptor (VR1) (Rattus norvegicus, UniProt O35433)
T1 construct: expressed in transfected cells; host or cells: CHO K1 cells (ECACC)
Test: Functional investigations on vanilloid receptor (VR1): Ca2+ influx FLIPR assay in CHO K1 cells stably transfected with the VR1 gene
Type: cell-based, rats
Conditions: method (b), 10 μM, 1–3 measurements; for inhibition at 10 µM: CHO-K1, read-out: VR1 inhibition in rats (10 μM) [%]
From the text: (b) Functional Investigations on Vanilloid Receptor (VR1)
The agonistic or antagonistic action of the substances to be investigated on the vanilloid receptor (VR1) may be determined with the following assay. According to this assay, the influx of Ca^2+ through the channel is quantified with the assistance of a Ca^2+-sensitive dye (type Fluo4, Molecular Probes Europe BV, Leiden, Netherlands) in a Fluorescent Imaging Plate Reader (FLIPR, Molecular Devices, Sunnyvale, USA).
Chinese hamster ovary cells (CHO K1 cells, European Collection of Cell Cultures (ECACC), Great Britain) are stably transfected with the VR1 gene. For functional investigations, these cells are plated out onto poly-D-lysine-coated, black 96 well plates with a clear bottom (BD Biosciences, Heidelberg, Germany) at a density of 25,000 cells/well. The cells are incubated overnight at 37° C. and 5% CO2 in a culture medium (Ham's Nutrient Mixture F12, 10 vol. % FCS (foetal calf serum), 18 μg/mL L-proline). On the following day, the cells are incubated with Fluo4 (Fluo4 2 μM, Pluronic F127 0.01 vol. %, Molecular Probes in HBSS (Hank's buffered saline solution), Gibco Invitrogen GmbH, Karlsruhe, Germany) for 30 minutes at 37° C. The plates are then washed 3 times with HBSS buffer and, after a further 15 minutes' incubation at room temperature, used for Ca^2+ measurement in the FLIPR. Ca^2+-dependent fluorescence is here measured before and after addition of the substances to be investigated (wavelength λex=488 nm, λem=540 nm). Quantification proceeds by measuring the highest fluorescence intensity (FC, fluorescence counts) over time.
The FLIPR protocol comprises 2 additions of substance. […] The percentage inhibition in comparison with the maximum achievable inhibition with 10 μM capsazepine is calculated.

T1 sequence (O35433 whole entry): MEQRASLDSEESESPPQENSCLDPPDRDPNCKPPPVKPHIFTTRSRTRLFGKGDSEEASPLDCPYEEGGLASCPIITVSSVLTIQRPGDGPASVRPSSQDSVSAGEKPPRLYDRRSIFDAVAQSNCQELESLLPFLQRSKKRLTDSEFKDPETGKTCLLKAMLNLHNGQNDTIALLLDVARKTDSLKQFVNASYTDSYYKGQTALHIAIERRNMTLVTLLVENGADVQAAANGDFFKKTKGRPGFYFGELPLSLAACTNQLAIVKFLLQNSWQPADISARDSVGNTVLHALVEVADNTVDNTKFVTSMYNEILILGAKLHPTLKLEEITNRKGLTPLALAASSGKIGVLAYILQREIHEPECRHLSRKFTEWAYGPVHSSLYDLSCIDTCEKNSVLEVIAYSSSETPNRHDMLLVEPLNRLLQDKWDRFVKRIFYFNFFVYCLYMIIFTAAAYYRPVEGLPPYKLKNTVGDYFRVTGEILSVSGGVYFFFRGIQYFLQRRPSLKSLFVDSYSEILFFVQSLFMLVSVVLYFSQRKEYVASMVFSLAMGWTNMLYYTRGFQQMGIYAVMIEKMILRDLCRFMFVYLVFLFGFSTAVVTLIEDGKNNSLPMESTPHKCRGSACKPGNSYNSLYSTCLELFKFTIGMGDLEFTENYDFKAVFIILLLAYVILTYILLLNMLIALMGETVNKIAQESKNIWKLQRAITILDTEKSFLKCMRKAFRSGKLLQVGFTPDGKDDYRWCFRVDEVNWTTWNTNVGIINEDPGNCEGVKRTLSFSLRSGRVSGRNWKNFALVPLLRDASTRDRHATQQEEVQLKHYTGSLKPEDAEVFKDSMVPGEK

Compound | inhibition at 10 µM | VR1 activation in rats (10 μM) [%]
CCCCCCCNc1c(-c2ccoc2)nc2ccccn12 [Example 6, (2-Furan-3-yl-imidazo[1,2-a]pyridin-3-yl)-heptyl-amine hydrochloride] | 66.4% | 
CCCCCC(C)(C)Nc1c(-c2ccoc2)nc2ccccn12 [Example 7, (1,1-Dimethyl-hexyl)-(2-furan-3-yl-imidazo[1,2-a]pyridin-3-yl)-amine hydrochloride] | 46% | 
CCCCCCCNc1c(-c2ccoc2)nc2cc(C)ccn12.Cl [Example 11, (2-Furan-3-yl-7-methyl-imidazo[1,2-a]pyridin-3-yl)-heptyl-amine hydrochloride] | 81.7% | 50.3%
CCCCCCCCNc1c(-c2ccoc2)nc2cc(C)ccn12.Cl [Example 12, (2-Furan-3-yl-7-methyl-imidazo[1,2-a]pyridin-3-yl)-octyl-amine hydrochloride] | 84.6% | 36.9%
CCCCCC(C)(C)Nc1c(-c2ccoc2)nc2cc(C)ccn12.Cl [Example 14, (1,1-Dimethyl-hexyl)-(2-furan-3-yl-7-methyl-imidazo[1,2-a]pyridin-3-yl)-amine hydrochloride] | 97.9% | 52.1%
CCCCCCC(C)(C)Nc1c(-c2ccoc2)nc2cc(C)ccn12.Cl [Example 15, (1,1-Dimethyl-heptyl)-(2-furan-3-yl-7-methyl-imidazo[1,2-a]pyridin-3-yl)-amine hydrochloride] | 92.5% | 49%
CCCCCCCC(C)(C)Nc1c(-c2ccoc2)nc2cc(C)ccn12 [Example 16, (1,1-Dimethyl-octyl)-(2-furan-3-yl-7-methyl-imidazo[1,2-a]pyridin-3-yl)-amine hydrochloride] | 31.8% | 

Next, values leading:

inhibition at 10 µM | VR1 activation in rats (10 μM) [%] | Compound
97.5% | 68.9% | CCCCCC(C)(C)Nc1c(-c2ccsc2)nc2cc(C)ccn12.Cl [Example 17, (1,1-Dimethyl-hexyl)-(7-methyl-2-thiophen-3-yl-imidazo[1,2-a]pyridin-3-yl)-amine hydrochloride]
62.8% | 45.3% | CCCCCCC(C)(C)Nc1c(-c2ccsc2)nc2cc(C)ccn12.Cl [Example 18, (1,1-Dimethyl-heptyl)-(7-methyl-2-thiophen-3-yl-imidazo[1,2-a]pyridin-3-yl)-amine hydrochloride]
34.4% |  | CCCCCCCCCNc1c(-c2cccnc2)nc2cc(C)ccn12 [Example 23, (7-Methyl-2-pyridin-3-yl-imidazo[1,2-a]pyridin-3-yl)-nonyl-amine hydrochloride]
33.2% |  | CCCCCCCCNc1c(-c2ccncc2)nc2cc(C)ccn12 [Example 25, (7-Methyl-2-pyridin-4-yl-imidazo[1,2-a]pyridin-3-yl)-octyl-amine hydrochloride]
32.1% |  | CCCCCC(C)(C)Nc1c(-c2ccncc2)nc2cc(C)ccn12 [Example 26, (1,1-Dimethyl-hexyl)-(7-methyl-2-pyridin-4-yl-imidazo[1,2-a]pyridin-3-yl)-amine hydrochloride]
61.1% |  | CCCCCCCCNc1c(-c2ccoc2)nc2ccc(C)cn12 [Example 27, (2-Furan-3-yl-6-methyl-imidazo[1,2-a]pyridin-3-yl)-octyl-amine hydrochloride]
36.6% |  | CCCCCC(C)(C)Nc1c(-c2ccoc2)nc2ccc(C)cn12 [Example 28, (1,1-Dimethyl-hexyl)-(2-furan-3-yl-6-methyl-imidazo[1,2-a]pyridin-3-yl)-amine hydrochloride]
